In article PMC10161675, “Study on the absolute configuration and biological activity of rotenoids from the leaves and twigs of Millettia pyrrhocarpa Mattapha, Forest & Hawkins, sp. Nov” (BMC Complementary Medicine and Therapies, 2023):
Values after ≈ are worked out from the molar mass of the structure shown.

Experiments:
[1] = tested on: S. aureus ATCC 25923 DMST 8840; experiment: microbe, parasite or virus in culture; assay type: cell-based; conditions: Staphylococcus aureus; for MBC: ATCC25923, read-out: Concentration of MBC; for MIC: ATCC25923, read-out: Concentration of MIC
Method: (§1) The study on in vitro antibacterial activity was carried out against nine strains (S. aureus ATCC 25923 DMST 8840, E. aerogenes ATCC13048 DMST 8841, E. coli O157: H7 DMST 12743, E. coli Enterotoxigenic, ETEC DMST 30543, E. coli Enteropathogenic, EPEC DMST 30546, S. typhimurium ATCC 13311 DMST 562, S. flexneri DMST 4423, P. mirabilis DMST 8212, and V. cholera nonO1/nonO139 DMST 2873).

[2] = tested on: E. coli Enteropathogenic, EPEC DMST 30546; experiment: microbe, parasite or virus in culture; assay type: cell-based; conditions: Escherichia coli; for MBC: read-out: Concentration of MBC
Method: as §1

[3] = tested on: E. aerogenes ATCC13048 DMST 8841; experiment: microbe, parasite or virus in culture; assay type: cell-based; conditions: Klebsiella aerogenes; for MBC: read-out: Concentration of MBC; for MIC: read-out: Concentration of MIC
Method: as §1

[4] = tested on: E. coli Enterotoxigenic, ETEC DMST 30543; experiment: microbe, parasite or virus in culture; assay type: cell-based; conditions: Escherichia coli; for MBC: read-out: Concentration of MBC
Method: as §1

S. flexneri DMST 4423 = experiment: microbe, parasite or virus in culture; assay type: cell-based; conditions: Shigella flexneri; for MBC: DMST4423, read-out: Concentration of MBC; for MIC: DMST4423, read-out: Concentration of MIC
Method: as §1

[5] = tested on: S. typhimurium ATCC 13311 DMST 562; experiment: microbe, parasite or virus in culture; assay type: cell-based; conditions: Salmonella enterica; for MBC: read-out: Concentration of MBC; for MIC: read-out: Concentration of MIC
Method: as §1

P. mirabilis DMST 8212 = experiment: microbe, parasite or virus in culture; assay type: cell-based; conditions: Proteus mirabilis; for MBC: DMST8212, read-out: Concentration of MBC; for MIC: DMST8212, read-out: Concentration of MIC
Method: as §1

[6] = tested on: ΔTat/RevMC99 virus in 1A2 cells; experiment: Anti-syncytium (MC99 + 1A2) cell-based assay for anti-HIV-1; conditions: Human immunodeficiency virus 1, 1A2, read-out: Anti-syncytium (MC99+1A2) EC50
Method: (§2) Anti-HIV1-RT assays of the crude extracts and isolated compounds were evaluated according to the standard methods described in previous literature. Cell-based assays for anti-HIV-1 RT of the crude extracts and isolated compounds were evaluated according to the standard methods described in previous literature
Fig. 4 Anti-syncytium MC99 + 1A2 of crude extracts and pure compounds from leaves and twigs of M. Pyrrhocarpa. ^bAnti-syncytium (MC99 + 1A2) EC50 = dose of compound that reduced 50% syncytium formation by ΔTat/RevMC99 virus in 1A2 cells.

[7] = tested on: V. cholera nonO1/nonO139 DMST 2873; experiment: Antibacterial activity (MIC/MBC); assay type: cell-based, V. cholerae; conditions: Vibrio cholerae; for MBC: read-out: Concentration of MBC; for MIC: read-out: Concentration of MIC
Method: as §1

HIV-1 RT = target: T1, HIV-1 RT (Human immunodeficiency virus type 1 group M subtype B, UniProt P04585); experiment: Anti-HIV1-RT assay; assay type: biochemical; conditions: read-out: Anti-HIV-1 RT (% Inhibition)
T1 construct: For determination of IC50 in the HIV-1 RT assay
Method: as §2

[8] = tested on: E. coli O157: H7 DMST 12743; experiment: Antibacterial activity (MIC/MBC); assay type: cell-based; conditions: Escherichia coli; for MBC: read-out: Concentration of MBC; for MIC: read-out: Concentration of MIC
Method: as §1

[9] = tested on: Hep G2 (Human hepatocellular carcinoma); experiment: Cytotoxicity assay; assay type: cell-based; conditions: listed as 6aS, 12aS, 12S-elliptinol (1)
Text: (§3) Cells line materials KKU-M213 (human cholangiocarcinoma) cells were kindly provided by Dr. Banchob Sripa from Liver Fluke and Cholangiocarcinoma Research Center, Department of Pathology, Faculty of Medicine, Khon Kean University. MMNK1 (human cholangiocyte) cells were obtained from the Japanese Collection of Research Bioresources Cell Bank (JCRB, Osaka, Japan). FaDu (human hypopharyngeal carcinoma), HT29 (human colorectal adenocarcinoma), MDA-MB-231 (human mammary gland/breast adenocarcinoma), SH-SY5Y (human neuroblastoma), A549 (human lung carcinoma), and HepG2 (human hepatocellular carcinoma) cell lines were obtained from the American Type Culture Collection (ATCC, Manassas, VA, USA).
(§4) Cytotoxicity assays of the crude extracts and isolated compounds were evaluated according to the standard methods described in previous literature.

[10] = tested on: A 549 (Human lung adenocarcinoma); experiment: Cytotoxicity assay; assay type: cell-based; conditions: A549
Text: as §3, §4

Row | Compound | MBC [1] [µg/mL] | MIC [1] [µg/mL] | MBC [2] [µg/mL] | MBC [3] [µg/mL] | MIC [3] [µg/mL] | MBC [4] [µg/mL] | MBC (S. flexneri DMST 4423) [µg/mL] | MIC (S. flexneri DMST 4423) [µg/mL] | MBC [5] [µg/mL] | MIC [5] [µg/mL] | MBC (P. mirabilis DMST 8212) [µg/mL] | MIC (P. mirabilis DMST 8212) [µg/mL] | EC50 [6] [µM] | MBC [7] [µg/mL] | MIC [7] [µg/mL] | melting point [°C] | inhibition at 200 µg/mL (HIV-1 RT) [%] | MBC [8] [µg/mL] | MIC [8] [µg/mL] | other results
1 | COc1ccc2c(=O)c3c(oc2c1)COc1cc(OC)c(OC)cc1-3 [Compound 3, dehydromunduserone] | > 3000 | 3000 (≈ 8.81 mM) | > 3000 | > 3000 | 3000 (≈ 8.81 mM) | > 3000 | > 3000 | 3000 (≈ 8.81 mM) | > 3000 | 3000 (≈ 8.81 mM) | > 3000 | 3000 (≈ 8.81 mM) | 91 | > 3000 | 3000 (≈ 8.81 mM) | 202 to 204 | 0 | > 3000 | 3000 (≈ 8.81 mM) | –
2 | COc1ccc2c(c1)O[C@@H]1COc3cc(OC)c(OC)cc3[C@H]1[C@@H]2O [Compound 2, 6aS, 12aS, 12S-munduserol] | > 3000 | 3000 (≈ 8.71 mM) | > 3000 | > 3000 | 3000 (≈ 8.71 mM) | > 3000 | > 3000 | 3000 (≈ 8.71 mM) | > 3000 | 3000 (≈ 8.71 mM) | > 3000 | 3000 (≈ 8.71 mM) | 4.99 | > 3000 | 3000 (≈ 8.71 mM) | 240 to 241 | 8.98 | > 3000 | 3000 (≈ 8.71 mM) | –
3 | O=C(N[C@H](CO)[C@H](O)c1ccc([N+](=O)[O-])cc1)C(Cl)Cl [Chloramphenicol, reference compound] | 125 (≈ 0.387 mM) | < 30 | – | 125 (≈ 0.387 mM) | < 30 | – | 125 (≈ 0.387 mM) | < 30 | 125 (≈ 0.387 mM) | < 35 | 31.2 (≈ 0.0966 mM) | < 30 | – | 125 (≈ 0.387 mM) | < 30 | – | – | 125 (≈ 0.387 mM) | < 30 | MIC ([2]; read-out: Concentration of MIC): < 30 µg/mL; MIC ([4]; read-out: Concentration of MIC): < 30 µg/mL
4 | COc1cc2c(cc1OC)[C@H]1[C@H](O)c3ccc4occc4c3O[C@@H]1CO2 [Compound 1, 6aS, 12aS, 12S-elliptinol] | > 3000 | 3000 (≈ 8.47 mM) | > 3000 | > 3000 | 3000 (≈ 8.47 mM) | > 3000 | > 3000 | 3000 (≈ 8.47 mM) | > 3000 | 3000 (≈ 8.47 mM) | > 3000 | 3000 (≈ 8.47 mM) | 4.48 | > 3000 | 3000 (≈ 8.47 mM) | – | 0.03 | > 3000 | 3000 (≈ 8.47 mM) | cytotoxicity ED50 [9]: 3.97 µg/mL; cytotoxicity ED50 [10]: 2.27 µg/mL
